Assay results taken from patent publication US12577226B2, “Compounds for treating Huntington's disease” (PTC THERAPEUTICS, INC., priority 2019, dated 2026).

These compounds were tested on Endogenous Huntingtin Protein (capture with MW1 (expanded polyglutamine) or MAB2166 antibody) (assay: Endogenous Huntingtin Protein Assay (ELISA-based Meso Scale Discovery electrochemiluminescence assay)). Conditions: MSD electrochemiluminescence platform.
Format: cell-based
Summary of the method: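 MSD electrochemiluminescence sandwich immunoassay: plates coated with 1 μg/mL MW1 or MAB2166 capture antibody, samples incubated overnight at 4 °C. Detection with rabbit monoclonal #5656S then SULFO-TAG anti-rabbit (each 0.25 μg/mL, 1 h RT).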

Compound	IC50
C[C@@H]1CN(c2ccc(-c3ncc(-c4ccc5c(cnn5C)c4)cc3O)nn2)C[C@H](C)N1 [Compound 126, 2-{6-[(3R,5S)-3,5-dimethylpiperazin-1-yl]pyridazin-3-yl}-5-(1-methyl-1H-indazol-5-yl)pyridin-3-ol and 2-{6-[(3S,5R)-3,5-dimethylpiperazin-1-yl]pyridazin-3-yl}-5-(1-methyl-1H-indazol-5-yl)pyridin-3-ol]	100 to 500 nM
Cn1cnc(-c2cnc(-c3ccc(O[C@@H]4CC(C)(C)NC(C)(C)[C@@H]4F)nn3)c(O)c2)cc1=O.Cn1cnc(-c2cnc(-c3ccc(O[C@H]4CC(C)(C)NC(C)(C)[C@H]4F)nn3)c(O)c2)cc1=O (mixture of isomers) [Compound 42, 6-[6-(6-{[(3R,4S)-3-fluoro-2,2,6,6-tetramethylpiperidin-4-yl]oxy}pyridazin-3-yl)-5-hydroxypyridin-3-yl]-3-methylpyrimidin-4(3H)-one and 6-[6-(6-{[(3S,4R)-3-fluoro-2,2,6,6-tetramethylpiperidin-4-yl]oxy}pyridazin-3-yl)-5-hydroxypyridin-3-yl]-3-methylpyrimidin-4(3H)-one]	500 to 1000 nM
Cc1cn2cc(-c3cnc(-c4cnc(N5CC[C@@H](NC(C)(C)C)C5)nn4)c(O)c3)cc(C#N)c2n1 [Compound 147, 6-(6-{3-[(3R)-3-(tert-butylamino)pyrrolidin-1-yl]-1,2,4-triazin-6-yl}-5-hydroxypyridin-3-yl)-2-methylimidazo[1,2-a]pyridine-8-carbonitrile]	100 to 500 nM
COc1cc(-c2cnc(-c3ccc(N4C[C@@H](C)N[C@@H](C)C4)nn3)c(O)c2)ccn1 [Compound 96, 6-{6-[(3R,5S)-3,5-dimethylpiperazin-1-yl]pyridazin-3-yl}-2′-methoxy[3,4′-bipyridin]-5-ol and 6-{6-[(3S,5R)-3,5-dimethylpiperazin-1-yl]pyridazin-3-yl}-2′-methoxy[3,4′-bipyridin]-5-ol]	100 to 500 nM
CC1CN(c2ccc(-c3ncc(NCc4cnc5ccccc5c4)cc3O)nn2)CCN1 (stereo not shown) [Compound 112, 2-[6-(3-methylpiperazin-1-yl)pyridazin-3-yl]-5-{[(quinolin-3-yl)methyl]amino}pyridin-3-ol]	500 to 1000 nM
CC1(C)CC(Oc2ccc(-c3ncc(-c4cn[nH]c4)cc3O)nn2)CC(C)(C)N1 [Compound 1, 5-(1H-pyrazol-4-yl)-2-{6-[(2,2,6,6-tetramethylpiperidin-4-yl)oxy]pyridazin-3-yl}pyridin-3-ol]	≤ 100 nM
[2H]C([2H])([2H])n1cc(-c2cnc(-c3ccc(N(C)C4CC(C)(C)NC5(CC5)C4)nn3)c(O)c2)cn1 (stereo not shown) [Compound 53, 2-{6-[(5,5-dimethyl-4-azaspiro[2.5]octan-7-yl)(methyl)amino]pyridazin-3-yl}-5-[1-(^2H3)methyl-1H-pyrazol-4-yl]pyridin-3-ol]	≤ 100 nM
CC(C)(C)NC1CCN(c2ncc(-c3ncc(-n4nccn4)cc3O)nn2)C1 (stereo not shown) [Compound 138, 2-{3-[3-(tert-butylamino)pyrrolidin-1-yl]-1,2,4-triazin-6-yl}-5-(2H-1,2,3-triazol-2-yl)pyridin-3-ol]	≤ 100 nM
Cn1cc2cc(-c3cnc(-c4ccc(N5CC(C)(C)NC(C)(C)C5)nn4)c(O)c3)cc(F)c2n1 [Compound 89, 5-(7-fluoro-2-methyl-2H-indazol-5-yl)-2-[6-(3,3,5,5-tetramethylpiperazin-1-yl)pyridazin-3-yl]pyridin-3-ol]	≤ 100 nM
CC1(C)C[C@H](Nc2ccc(-c3ncc(-c4cn[nH]c4)cc3O)nn2)[C@@H](F)C(C)(C)N1 [Compound 8, 2-(6-{[(3R,4S)-3-fluoro-2,2,6,6-tetramethylpiperidin-4-yl]amino}pyridazin-3-yl)-5-(1H-pyrazol-4-yl)pyridin-3-ol]	≤ 100 nM
